From ChEMBL document CHEMBL1201862, “PubChem BioAssay data set” (2004)
Activity calls are given as the source filed them. For most assays here, no stated cut-off is given here; in the data, actives have a measured EC50 and inactives only a lower limit.

Legend:
[1] = target: T1, Replicative DNA helicase DnaB (Mycobacterium tuberculosis, UniProt P9WMR3); test: DnaB intein splicing inhibitors, dose response, biochemical, cell-free fluorescence (AID 449749); type: functional
T1 sequence (P9WMR3 whole entry): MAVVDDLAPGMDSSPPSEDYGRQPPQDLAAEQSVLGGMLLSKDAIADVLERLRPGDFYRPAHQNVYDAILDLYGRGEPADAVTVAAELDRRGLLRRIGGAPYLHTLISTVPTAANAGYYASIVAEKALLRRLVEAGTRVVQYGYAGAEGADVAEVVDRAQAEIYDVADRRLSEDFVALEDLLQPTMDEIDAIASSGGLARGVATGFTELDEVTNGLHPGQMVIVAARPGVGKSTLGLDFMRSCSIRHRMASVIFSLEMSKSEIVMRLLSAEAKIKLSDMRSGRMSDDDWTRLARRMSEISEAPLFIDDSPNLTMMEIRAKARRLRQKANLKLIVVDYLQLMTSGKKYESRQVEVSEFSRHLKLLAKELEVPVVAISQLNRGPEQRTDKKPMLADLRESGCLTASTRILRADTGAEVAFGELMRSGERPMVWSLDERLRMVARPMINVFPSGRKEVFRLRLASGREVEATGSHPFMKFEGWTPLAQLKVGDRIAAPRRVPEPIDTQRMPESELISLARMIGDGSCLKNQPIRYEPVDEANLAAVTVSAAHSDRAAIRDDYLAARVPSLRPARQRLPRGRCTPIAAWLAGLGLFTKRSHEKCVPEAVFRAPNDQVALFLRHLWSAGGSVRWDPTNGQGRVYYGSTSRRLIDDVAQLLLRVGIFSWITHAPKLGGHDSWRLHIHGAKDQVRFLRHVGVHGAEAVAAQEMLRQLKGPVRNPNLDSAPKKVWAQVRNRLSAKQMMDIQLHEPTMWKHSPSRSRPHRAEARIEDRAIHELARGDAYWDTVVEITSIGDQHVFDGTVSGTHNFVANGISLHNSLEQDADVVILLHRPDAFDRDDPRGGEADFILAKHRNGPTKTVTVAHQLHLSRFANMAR

Protein RecA = target: T2, Protein RecA (Mycobacterium tuberculosis, UniProt P9WHJ3); test: Fluorescence Cell-Free Homogeneous Dose Retest to Identify Inhibitors of RecA-Intein Splicing Activity. [Related pubchem assays (depositor defined):AID2097, AID2223, AID489010, AID492950]; type: functional
T2 sequence (P9WHJ3 whole entry): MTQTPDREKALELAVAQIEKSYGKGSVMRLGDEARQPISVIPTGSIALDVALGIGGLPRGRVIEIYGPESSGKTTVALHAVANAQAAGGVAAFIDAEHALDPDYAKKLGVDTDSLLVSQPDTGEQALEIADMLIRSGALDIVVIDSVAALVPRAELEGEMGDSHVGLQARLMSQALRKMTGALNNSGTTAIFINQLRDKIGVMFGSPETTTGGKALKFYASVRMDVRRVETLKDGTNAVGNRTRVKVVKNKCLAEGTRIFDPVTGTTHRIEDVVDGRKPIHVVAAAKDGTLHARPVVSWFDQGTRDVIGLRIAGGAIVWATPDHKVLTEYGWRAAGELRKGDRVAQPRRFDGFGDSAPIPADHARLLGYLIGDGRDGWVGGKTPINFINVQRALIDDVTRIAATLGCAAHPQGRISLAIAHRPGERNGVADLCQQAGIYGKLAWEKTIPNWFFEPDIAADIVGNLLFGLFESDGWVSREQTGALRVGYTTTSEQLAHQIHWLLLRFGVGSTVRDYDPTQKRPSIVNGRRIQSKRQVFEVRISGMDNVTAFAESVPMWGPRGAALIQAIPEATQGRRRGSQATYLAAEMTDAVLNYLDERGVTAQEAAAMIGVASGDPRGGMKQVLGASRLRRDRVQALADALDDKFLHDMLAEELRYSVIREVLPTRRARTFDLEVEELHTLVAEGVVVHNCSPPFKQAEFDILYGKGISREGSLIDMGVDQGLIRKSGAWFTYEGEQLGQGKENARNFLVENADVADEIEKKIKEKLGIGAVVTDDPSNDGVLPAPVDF

[2] = HEp-2 cell cytotoxicity, dose response, cytotoxicity control for RSV inhibitor project, HTS (AID 2410); type: functional; conditions: human respiratory syncytial virus
[3] = inhibitors of intracellular T. cruzi replication, confirmation, NIH3T3 host cells, beta-gal luminescence (AID 2044); type: functional, cell-based;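 further: intracellular parasites grown in NIH/3T3 mouse fibroblasts as host cells; luminescent beta-galactosidase reporter signal from transgenic T. cruzi replicating inside host cells; inhibitors lower the luminescence signal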
[4] = cytotoxicity toward NIH3T3 fibroblasts, dose response, counter-screen, cell-based, ATP luminescence, mouse fibroblasts (AID 2010); type: functional;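 further: cells exposed to compound for about 90 hours before reading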
Cytochrome P450 1A2 = target: T3, Cytochrome P450 1A2 (Homo sapiens, UniProt P05177);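 further: PubChem cytochrome P450 panel assay, CYP1A2 panel member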
T3 sequence (P05177 whole entry): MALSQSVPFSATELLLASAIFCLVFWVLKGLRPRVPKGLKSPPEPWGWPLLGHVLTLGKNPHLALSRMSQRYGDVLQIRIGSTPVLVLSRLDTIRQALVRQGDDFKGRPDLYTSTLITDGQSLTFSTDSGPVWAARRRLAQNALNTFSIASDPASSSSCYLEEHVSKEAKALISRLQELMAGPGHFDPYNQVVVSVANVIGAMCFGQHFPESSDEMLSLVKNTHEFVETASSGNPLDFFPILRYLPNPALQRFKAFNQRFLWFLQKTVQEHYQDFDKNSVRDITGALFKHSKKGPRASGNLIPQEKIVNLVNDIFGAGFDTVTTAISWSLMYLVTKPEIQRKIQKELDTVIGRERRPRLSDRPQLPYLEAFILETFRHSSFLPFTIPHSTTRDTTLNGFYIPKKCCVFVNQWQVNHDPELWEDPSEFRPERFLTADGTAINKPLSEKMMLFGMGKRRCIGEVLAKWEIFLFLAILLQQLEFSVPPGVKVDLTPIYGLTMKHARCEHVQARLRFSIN

[5] = tested on: Streptococcus sp. 'group A'; test: growth inhibition of control SK(-) GAS strain, dose response, counter-screen for streptokinase expression inhibitor project, luminescence, kanamycin, BacTiterGlo, confirmation (AID 1900); type: functional, organism-based
Streptococcus = test: Group A Streptococcus viability loss, dose response, counter-screen for streptokinase expression inhibitor project, luminescence, BacTiterGlo (AID 1915); type: functional, organism-based;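 further: potency for reduction of bacterial viability or growth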

COc1ccc(C2C(C#N)=C(N)Oc3c2c(C)nn3-c2ccccc2)cc1Cn1nc(C)c([N+](=O)[O-])c1C (stereo unspecified)
AC50 [1]: 2.95 µM (active) | EC50 (Protein RecA): 10.5 µM (active)

CCn1c2ccccc2c2cc(NC(=O)c3ccc(Br)o3)ccc21
CC50 [2]: 27.8 µM (active)

C/C(CC(=O)Nc1cc(C)ccn1)=N\NC(=O)c1ccc(C)cc1
AC50 [1]: 24.4 µM (active) | EC50 (Protein RecA): 8.13 µM (active)

O=C(N/N=C/c1nn(-c2ccccc2)cc1-c1ccc(Cl)cc1)c1ccncc1
CC50 [2]: 10.1 µM (active)

CC(C)c1ccccc1OCC(O)CN1CCN(S(=O)(=O)c2ccc([N+](=O)[O-])cc2)CC1 (stereo unspecified)
EC50 [3]: 0.409 µM (active) | EC50 [4]: > 60 µM (not active)

CCOC(=O)c1[nH]c2ccc(OC)cc2c1C(SCC(=O)O)c1ccc(C(F)(F)F)cc1 (stereo unspecified)
CC50 [2]: 21.1 µM (active)

C=C(C)COc1ccc(-c2nc(N)nc(C(F)(F)F)c2-c2ccc(OC)cc2)c(O)c1
EC50 [3]: 2 µM (active) | EC50 [4]: > 60 µM (not active)

N#Cc1cn(CCOc2ccc(F)cc2)c2ccccc12
CC50 [2]: 14.1 µM (active)

O=[N+]([O-])c1ccc(S(=O)(=O)N2CCN(c3ccnc4cc(Cl)ccc34)CC2)cc1
EC50 [3]: 0.581 µM (active) | EC50 [4]: > 60 µM (not active)

COc1cc(/C=N/NC(=O)c2nnn(-c3nonc3N)c2C(C)C)ccc1OCc1ccccc1
CC50 [2]: 14 µM (active)

CCCOc1ccc(C(=O)NNC(=S)NC(=O)c2cc(-c3ccccc3)nc3ccccc23)cc1
AC50 (Cytochrome P450 1A2): 17.8 µM (inconclusive)

c1ccc2sc(C3CCNCC3)nc2c1
EC50 [3]: 2.58 µM (active) | EC50 [4]: > 60 µM (not active)

CS(=O)(=O)N1CCC(Oc2ccccc2C(=O)N2CCCCC2CO)CC1 (stereo unspecified)
AC50 [1]: > 380 µM (inactive) | EC50 (Protein RecA): > 380 µM (inactive)

N#CC1=C(N)Oc2[nH]nc(-c3cccs3)c2C1c1ccco1 (stereo unspecified)
AC50 [1]: 8.22 µM (active) | EC50 (Protein RecA): 7.2 µM (active)

O=C(C1=C[C@H](c2ccc(Br)cc2)C[C@H](OCCCCO)O1)N1CCN(Cc2ccccc2)CC1
EC50 [3]: 0.874 µM (active) | EC50 [4]: > 60 µM (not active)

Cc1ccc(NP(=O)(c2ccc(N(C)C)cc2NC(=O)c2cccs2)N2CCOCC2)cc1Cl (stereo unspecified)
EC50 [3]: 1.9 µM (active) | EC50 [4]: > 30 µM (not active)

CCOC(=O)c1cc2c(=O)n3ccccc3nc2n(CCOC)/c1=N/C(=O)c1c(-c2c(F)cccc2Cl)noc1C
CC50 [2]: 5.3 µM (active)

Cc1noc(C)c1-c1cncnc1Nc1ccccc1
AC50 (Cytochrome P450 1A2): 25.1 µM (inconclusive)

Cc1c(-c2ccccc2)oc2c(C(=O)OCCN3CCCCC3)cccc2c1=O [FLAVOXATE]
AC50 (Cytochrome P450 1A2): 6.31 µM (inconclusive)

Cc1c(C(=O)N2CCc3ccccc3C2)sc2nc(-c3ccccc3)cn12
CC50 [2]: 30.3 µM (active)

Cc1nc2ccccc2c2c1C(=O)N(Cc1cccnc1)C2=O
AC50 [1]: 32.8 µM (active) | EC50 (Protein RecA): 1.02 µM (active)

CC(C)(C)c1ccc(C(=O)Cn2cnnc2C#N)cc1
AC50 [1]: 48.9 µM (active) | EC50 (Protein RecA): 20 µM (active)

N#C/C(=C/c1ccncc1)c1nc2ccccc2s1
AC50 [1]: > 120 µM (inactive) | EC50 (Protein RecA): 1.67 µM (active)

Cc1nn(C)cc1CN1CCCC(C(=O)c2ccc(-c3ccccc3)cc2)C1 (stereo unspecified)
EC50 [3]: 0.123 µM (active) | EC50 [4]: > 60 µM (not active)

Cc1ccc(CNC(=O)CCC2CCCN(Cc3ccc4cccc(F)c4n3)C2)o1 (stereo unspecified)
EC50 [3]: 0.791 µM (active) | EC50 [4]: > 60 µM (not active)

C[C@@H](C(=O)NCc1ccccn1)[C@@H]1C[C@@]1(C)[C@@H](NC(=O)OCc1ccccc1)c1ccccc1
AC50 (Cytochrome P450 1A2): 20 µM (inconclusive)

CCOC(=O)c1ccc(-n2ccnc2)c(NC(=O)c2cccc(Br)c2)c1
EC50 [3]: 0.281 µM (active) | EC50 [4]: > 60 µM (not active)

COc1c(N2CCNC(C)C2)c(F)cc2c(=O)c(C(=O)O)cn(C3CC3)c12 (stereo unspecified) [GATIFLOXACIN]
EC50 [5]: 0.66 µM (active) | EC50 (Streptococcus): 1.09 µM (active)

O=C(NC1CCCCCC1)c1cccnc1S
EC50 [3]: 8.39 µM (active) | EC50 [4]: > 60 µM (inconclusive)

COC(=O)C1=NN(C(C)=O)C2(CC(=O)N(c3cc(C)cc(C)c3)C2=O)C1 (stereo unspecified)
AC50 [1]: > 380 µM (inactive) | EC50 (Protein RecA): > 380 µM (inactive)

Cc1onc(-c2ccc(Cl)cc2Cl)c1-c1csc(N/N=C/c2ccccc2Cl)n1
EC50 [3]: 2.08 µM (active) | EC50 [4]: 13.9 µM (active)

CC(=O)/N=c1\sc2c3ccccc3ccc2n1C
EC50 [3]: 0.643 µM (active) | EC50 [4]: > 30 µM (not active)

COc1ccc(C)cc1NC(=O)CN1CCN(S(=O)(=O)c2ccc(C(C)C)cc2)CC1
EC50 [3]: 1.79 µM (active) | EC50 [4]: > 30 µM (not active)

O=S(=O)(c1ccccc1)N1CCC[C@@]2(CCN(c3cccc(-c4ccccc4)c3)C2)C1
AC50 (Cytochrome P450 1A2): 15.8 µM (inconclusive)

COc1ccc(NC(=O)c2cccc(N3C(=O)C4C5C=CC(C5)C4C3=O)c2)cc1Cl (stereo unspecified)
AC50 [1]: > 380 µM (inactive) | EC50 (Protein RecA): 18.5 µM (active)

Cc1sc(NC(=O)CSC2=NCCS2)nc1-c1ccccc1
AC50 [1]: 12.7 µM (active) | EC50 (Protein RecA): 4.25 µM (active)

CC(C)=CCc1cc([C@@H]2CC(=O)c3ccc(O)c(CC=C(C)C)c3O2)ccc1O [GLABROL]
EC50 [5]: 6.4 µM (active) | EC50 (Streptococcus): 5.43 µM (active)

O=C(COC(=O)c1c2c(nc3ccccc13)/C(=C\c1cccs1)CCC2)Nc1ccccc1Cl
EC50 [3]: 1.73 µM (active) | EC50 [4]: > 60 µM (not active)

Clc1ccccc1-c1ncc2ccccn12
EC50 [3]: 2.45 µM (active) | EC50 [4]: > 60 µM (not active)

COCc1n[nH]c2c1C(c1cccc(OC)c1)C(C#N)=C(N)O2 (stereo unspecified)
AC50 [1]: 40 µM (active) | EC50 (Protein RecA): 27 µM (active)

N#CC1=C(N)C(C#N)(C#N)[C@H](c2c(F)cccc2F)[C@H]2CC3(CC=C12)OCCO3
AC50 [1]: > 380 µM (inactive) | EC50 (Protein RecA): 22.2 µM (active)

Cc1nc(-c2ccccn2)nc(SCC(=O)c2ccccc2)c1Cl
EC50 [5]: 3.92 µM (active) | EC50 (Streptococcus): 11.4 µM (active)

Clc1ccc(N2CCCCCC2)nn1
AC50 (Cytochrome P450 1A2): 15.8 µM (inconclusive)

COc1ccc(Cl)cc1N=C(S)NCCC(c1ccccc1)c1ccccc1
EC50 [3]: 1.44 µM (active) | EC50 [4]: > 60 µM (not active)

COc1ccc(-n2c(=O)c(-c3cn(C)c4ccccc34)nc3cnc(N4CCOCC4)nc32)cc1
AC50 (Cytochrome P450 1A2): 31.6 µM (inconclusive)
